Earlier results on four compounds are cited in US20220351806A1, “Biomarker Panels for Guiding Dysregulated Host Response Therapy” (Endpoint Health Inc., priority 2019, published 2022).

In data set [1] the test system is shock events induced by endotoxin. The settings on record: rats, preventive administration, injected endotoxin; cited from earlier work.
A further data set concerns acid-induced lung injury. The settings on record: rats, cited from earlier work.
Data set [2] relates to oncologic and lymphopenic patients. Particulars: over 390 oncologic and lymphopenic patients; cited from earlier work.
For a further data set, the system named is septic animals. Particulars: exogenous TFPI expressed in mammalian cells and/or Escherichia coli; cited from earlier work.

For `CC1C(=O)OC2C(O)C34C5CC(C(C)(C)C)C36C(OC(=O)C6O)OC4(C(=O)O5)C12O` (stereo not drawn) [BN 52021], the “release of thromboxane and prostaglandin factor 1-α (PGF1-α)” value in data set [1] is “reduced”.
Take `CCOC(=O)[C@H](Cc1ccccc1)NC(=O)c1cc(Cl)c(OCCN2CCN(C)CC2)c(Cl)c1O.Cl.Cl` [JTE 607]: the “production of inflammatory cytokines (tumor necrosis factor-alpha, interleukin-6, cytokine-induced neutrophil chemoattractant)” value in the data set on acid-induced lung injury (acid-induced lung injury) is given as “inhibit the production”. Moreover, in the data set with acid-induced lung injury, the acid-induced lung injury entry is “attenuate acid-”.
For the compound CYT-107, in data set [2], the immunity result was “counts, and improved”; the safety entry is “safe, invariably”.
Consider tifacogin, for which the “outcome in septic animals” value with septic animals was “coli improved”.
